Where two headings read alike, the source gives them in different places.
What was measured:
[1] = molecular target: PI3K δ (Homo sapiens, UniProt O00329); experiment: PI 3-Kinase HTRF inhibition assay, PI3K δ; format: biochemical; conditions: in vitro
Description: (§1) Commercial kits or systems for assaying PI3-K activities are available. The commercially available kits or systems can be used to screen for inhibitors and/or agonists of PI3-Ks including but not limited to PI 3-Kinase α, β, δ, and γ. Anr exemplary system is PI 3-Kinase (human) HTRF™ Assay from Upstate. […] Briefly, the assay is a time resolved FRET assay that indirectly measures PIP3 product formed by the activity of a PI3-K. The kinase reaction is performed in a microtitre plate (e.g., a 384 well microtitre plate). The total reaction volume is approximately 20 ul per well. In the first step, each well receives 2 ul of test compound in 20% dimethylsulphoxide resulting in a 2% DMSO final concentration. Next, approximately 14.5 ul of a kinase/PIP2 mixture (diluted in 1× reaction buffer) is added per well for a final concentration of 0.25-0.3 ug/ml kinase and 10 μM PIP2. The plate is sealed and incubated for 15 minutes at room temperature. To start the reaction, 3.5 ul of ATP (diluted in 1× reaction buffer) is added per well for a final concentration of 10 μM ATP. The plate is sealed and incubated for 1 hour at room temperature. The reaction is stopped by adding 5 ul of Stop Solution per well and then 5 ul of Detection Mix is added per well. The plate is sealed, incubated for 1 hour at room temperature, and then read on an appropriate plate reader. Data is analyzed and IC50s are generated using GraphPad Prism 5. For PI3K α, β, δ, and γ, the nM conentration of inhibitor to reach IC50 is provided. […] Similar assays, and others known in the art, can be used to measure the percent inhibition of other kinases, including but not limited to PI3K class II kinases, phosphoinositide 4 kinases (PI4K), and phosphoinositide 5 kinases (PI5K).

[2] = molecular target: PI3K α (Homo sapiens, UniProt P42336); experiment: PI 3-Kinase HTRF inhibition assay, PI3K α; format: biochemical; conditions: in vitro
Description: as §1

[3] = molecular target: PI3K β (Homo sapiens, UniProt P42338); experiment: PI 3-Kinase HTRF inhibition assay, PI3K β; format: biochemical
Description: as §1

[4] = molecular target: PI3K γ (Homo sapiens, UniProt P48736); experiment: PI 3-Kinase HTRF inhibition assay, PI3K γ; format: biochemical; conditions: in vitro
[5] = tested on: MDA-MB-361; experiment: MDA-MB-361 proliferation; format: cell-based; conditions: Homo sapiens; in vitro IC50, MDA-MB-361 cells
Description: The ability of one or more subject compounds to inhibit tumor cell line proliferation is determined according to standard procedures known in the art. For instance, an in vitro cellular proliferation assay can be performed to measure the metabolic activity of live cells. The assay is performed in a 96 well microtiter plate using Alamar Blue reduction. Human tumor cell lines are obtained from ATCC (e.g., MCF7, U-87 MG, MDA-MB-468, PC-3), grown to confluency in T75 flasks, trypsinized with 0.25% trypsin, washed one time with Tumor Cell Media (DMEM+10% FBS), and plated in 90 ul at 5,000 cells/well in Tumor Cell Media. A compound disclosed herein is diluted in Tumor Cell Media and added in a 10 ul volume. Plates are incubated for 72 hours at 37 C and 5% CO2. A volume of 10 uL of Alamar Blue reagent is added to each well and plates are incubated for 3 hours at 37 C and 5% CO2. Alamar Blue fluoresce is read at 560 Ex/590 Em, and IC50 values are calculated using GraphPad Prism 5.
Cells comprising one or more mutations in PI3Kα, including but not limited to breast cancer cells (e.g., MDA-MB-361 and T47D), and cells comprising one or more mutations in PTEN including but not limited to prostate cancer cells (e.g., PC3), are typically grown in cell growth media such as DMEM supplemented with fetal bovine serum and/or antibiotics, and grown to confluency. Cells are then treated with various concentrations of test compound for about 2 hours and subsequently lysed in cell lysis buffer. Lysates are subjected to SDS-PAGE followed by Western blot analysis to detect downstream signaling markers, including but not limited to pAKT(S473), pAKT(T308), pS6, and p4E-BP1. Degree of proliferation (and proliferation inhibition) can also be measured for cells at various doses of compound of the present invention.

[6] = in vitro, read-out: PI3K β IC50

Sequence of PI3K γ (P48736 whole entry): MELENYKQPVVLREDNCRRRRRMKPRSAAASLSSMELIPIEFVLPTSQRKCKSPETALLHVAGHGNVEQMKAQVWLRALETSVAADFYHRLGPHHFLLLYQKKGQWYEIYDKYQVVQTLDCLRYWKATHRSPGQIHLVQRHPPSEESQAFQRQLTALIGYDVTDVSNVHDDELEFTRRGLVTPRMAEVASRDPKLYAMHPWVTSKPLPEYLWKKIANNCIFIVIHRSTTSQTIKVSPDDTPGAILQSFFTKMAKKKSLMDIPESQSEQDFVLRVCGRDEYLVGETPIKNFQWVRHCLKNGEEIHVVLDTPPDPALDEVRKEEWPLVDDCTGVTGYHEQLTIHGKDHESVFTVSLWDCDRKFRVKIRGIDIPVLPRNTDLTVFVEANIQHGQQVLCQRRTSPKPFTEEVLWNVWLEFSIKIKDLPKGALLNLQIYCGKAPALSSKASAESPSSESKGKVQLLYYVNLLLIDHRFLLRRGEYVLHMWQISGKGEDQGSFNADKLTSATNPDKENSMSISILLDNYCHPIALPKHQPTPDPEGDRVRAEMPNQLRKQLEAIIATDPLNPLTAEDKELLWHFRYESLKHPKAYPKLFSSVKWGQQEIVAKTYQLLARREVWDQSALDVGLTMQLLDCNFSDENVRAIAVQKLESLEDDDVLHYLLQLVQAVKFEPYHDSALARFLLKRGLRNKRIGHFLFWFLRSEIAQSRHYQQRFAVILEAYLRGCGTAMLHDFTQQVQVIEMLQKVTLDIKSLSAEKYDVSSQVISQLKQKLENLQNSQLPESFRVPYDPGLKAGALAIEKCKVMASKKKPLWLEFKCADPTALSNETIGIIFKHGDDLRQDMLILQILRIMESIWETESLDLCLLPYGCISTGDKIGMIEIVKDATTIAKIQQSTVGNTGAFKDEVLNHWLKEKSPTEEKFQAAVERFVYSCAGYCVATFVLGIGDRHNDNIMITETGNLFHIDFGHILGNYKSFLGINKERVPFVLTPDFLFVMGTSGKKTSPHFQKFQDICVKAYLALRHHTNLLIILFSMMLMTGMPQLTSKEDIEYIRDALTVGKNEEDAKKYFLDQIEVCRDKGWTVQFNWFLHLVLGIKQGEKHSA
Sequence of PI3K β (P42338 whole entry): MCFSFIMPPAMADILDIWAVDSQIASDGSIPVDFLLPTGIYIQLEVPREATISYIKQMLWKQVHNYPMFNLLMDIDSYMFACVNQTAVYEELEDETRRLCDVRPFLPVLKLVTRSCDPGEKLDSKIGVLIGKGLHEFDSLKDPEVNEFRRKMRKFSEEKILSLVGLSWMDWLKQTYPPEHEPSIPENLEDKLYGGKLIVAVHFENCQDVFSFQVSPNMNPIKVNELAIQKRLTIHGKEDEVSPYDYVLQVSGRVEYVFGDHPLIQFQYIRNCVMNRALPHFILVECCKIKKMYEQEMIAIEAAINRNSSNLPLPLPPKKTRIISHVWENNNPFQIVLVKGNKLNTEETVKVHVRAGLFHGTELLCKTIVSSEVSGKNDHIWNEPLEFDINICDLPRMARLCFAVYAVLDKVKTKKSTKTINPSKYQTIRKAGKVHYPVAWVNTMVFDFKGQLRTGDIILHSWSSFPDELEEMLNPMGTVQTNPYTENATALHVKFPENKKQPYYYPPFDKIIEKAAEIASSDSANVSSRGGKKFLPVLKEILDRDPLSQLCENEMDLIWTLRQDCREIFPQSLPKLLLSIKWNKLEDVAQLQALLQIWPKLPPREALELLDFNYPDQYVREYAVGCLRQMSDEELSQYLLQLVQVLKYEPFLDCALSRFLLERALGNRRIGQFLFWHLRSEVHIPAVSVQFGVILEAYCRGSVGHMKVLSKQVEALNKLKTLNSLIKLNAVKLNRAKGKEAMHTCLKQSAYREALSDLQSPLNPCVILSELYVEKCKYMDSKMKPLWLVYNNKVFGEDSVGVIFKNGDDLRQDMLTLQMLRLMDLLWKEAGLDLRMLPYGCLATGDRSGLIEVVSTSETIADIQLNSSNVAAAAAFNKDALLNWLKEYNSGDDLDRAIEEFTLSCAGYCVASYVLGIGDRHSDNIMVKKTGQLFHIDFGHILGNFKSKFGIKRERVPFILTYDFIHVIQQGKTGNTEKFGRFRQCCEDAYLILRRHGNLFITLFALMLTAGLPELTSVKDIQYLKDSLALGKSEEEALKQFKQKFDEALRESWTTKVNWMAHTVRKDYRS
Sequence of PI3K β (P27986 whole entry partner): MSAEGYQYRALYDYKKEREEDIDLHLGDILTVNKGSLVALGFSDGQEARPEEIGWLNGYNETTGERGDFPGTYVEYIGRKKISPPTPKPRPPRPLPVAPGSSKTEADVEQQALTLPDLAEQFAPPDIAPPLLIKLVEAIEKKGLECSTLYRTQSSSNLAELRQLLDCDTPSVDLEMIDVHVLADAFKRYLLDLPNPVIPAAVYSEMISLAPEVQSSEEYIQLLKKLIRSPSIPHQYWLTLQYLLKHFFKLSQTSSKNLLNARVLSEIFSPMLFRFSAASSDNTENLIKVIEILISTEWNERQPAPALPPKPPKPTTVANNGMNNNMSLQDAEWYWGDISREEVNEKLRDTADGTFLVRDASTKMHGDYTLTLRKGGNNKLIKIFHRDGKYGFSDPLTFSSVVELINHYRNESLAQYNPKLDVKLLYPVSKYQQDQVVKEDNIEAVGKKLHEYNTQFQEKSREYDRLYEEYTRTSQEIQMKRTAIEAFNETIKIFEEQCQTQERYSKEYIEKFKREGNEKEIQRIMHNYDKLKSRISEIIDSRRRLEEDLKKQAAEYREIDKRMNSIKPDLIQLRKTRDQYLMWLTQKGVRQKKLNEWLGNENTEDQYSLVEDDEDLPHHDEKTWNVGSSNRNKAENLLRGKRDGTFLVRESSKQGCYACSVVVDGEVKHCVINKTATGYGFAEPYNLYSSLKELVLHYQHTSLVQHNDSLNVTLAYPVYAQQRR
Sequence of PI3K α (P42336 whole entry): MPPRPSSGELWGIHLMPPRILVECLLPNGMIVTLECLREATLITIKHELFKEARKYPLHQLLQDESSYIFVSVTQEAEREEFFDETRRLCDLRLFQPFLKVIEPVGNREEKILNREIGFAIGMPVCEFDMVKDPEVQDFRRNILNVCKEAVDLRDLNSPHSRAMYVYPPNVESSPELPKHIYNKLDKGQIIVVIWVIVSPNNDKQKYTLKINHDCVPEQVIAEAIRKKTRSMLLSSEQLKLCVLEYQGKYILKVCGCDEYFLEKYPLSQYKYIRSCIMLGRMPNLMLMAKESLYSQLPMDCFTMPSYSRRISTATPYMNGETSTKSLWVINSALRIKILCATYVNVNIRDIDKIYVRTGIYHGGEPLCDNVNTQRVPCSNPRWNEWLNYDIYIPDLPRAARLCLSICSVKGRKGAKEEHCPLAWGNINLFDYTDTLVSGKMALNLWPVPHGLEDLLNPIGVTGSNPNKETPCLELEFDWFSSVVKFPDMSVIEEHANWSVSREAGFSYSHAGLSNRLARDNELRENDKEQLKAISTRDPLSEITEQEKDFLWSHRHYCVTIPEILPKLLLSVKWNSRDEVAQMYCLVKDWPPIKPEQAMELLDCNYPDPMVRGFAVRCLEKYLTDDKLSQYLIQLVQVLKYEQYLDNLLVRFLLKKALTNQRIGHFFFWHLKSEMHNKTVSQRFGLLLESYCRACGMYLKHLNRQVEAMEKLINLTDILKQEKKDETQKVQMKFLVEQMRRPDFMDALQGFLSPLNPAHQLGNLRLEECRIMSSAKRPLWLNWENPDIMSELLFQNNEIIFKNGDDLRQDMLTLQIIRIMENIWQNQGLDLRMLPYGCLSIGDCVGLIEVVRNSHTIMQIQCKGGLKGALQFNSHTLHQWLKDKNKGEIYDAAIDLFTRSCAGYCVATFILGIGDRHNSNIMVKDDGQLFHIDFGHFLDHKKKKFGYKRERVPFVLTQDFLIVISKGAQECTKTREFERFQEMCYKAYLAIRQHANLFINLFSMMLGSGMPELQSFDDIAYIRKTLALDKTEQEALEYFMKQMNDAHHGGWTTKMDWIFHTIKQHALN
Sequence of PI3K α (P27986 whole entry partner): as the sequence (P27986 whole entry partner) above
Sequence of PI3K δ (O00329 whole entry): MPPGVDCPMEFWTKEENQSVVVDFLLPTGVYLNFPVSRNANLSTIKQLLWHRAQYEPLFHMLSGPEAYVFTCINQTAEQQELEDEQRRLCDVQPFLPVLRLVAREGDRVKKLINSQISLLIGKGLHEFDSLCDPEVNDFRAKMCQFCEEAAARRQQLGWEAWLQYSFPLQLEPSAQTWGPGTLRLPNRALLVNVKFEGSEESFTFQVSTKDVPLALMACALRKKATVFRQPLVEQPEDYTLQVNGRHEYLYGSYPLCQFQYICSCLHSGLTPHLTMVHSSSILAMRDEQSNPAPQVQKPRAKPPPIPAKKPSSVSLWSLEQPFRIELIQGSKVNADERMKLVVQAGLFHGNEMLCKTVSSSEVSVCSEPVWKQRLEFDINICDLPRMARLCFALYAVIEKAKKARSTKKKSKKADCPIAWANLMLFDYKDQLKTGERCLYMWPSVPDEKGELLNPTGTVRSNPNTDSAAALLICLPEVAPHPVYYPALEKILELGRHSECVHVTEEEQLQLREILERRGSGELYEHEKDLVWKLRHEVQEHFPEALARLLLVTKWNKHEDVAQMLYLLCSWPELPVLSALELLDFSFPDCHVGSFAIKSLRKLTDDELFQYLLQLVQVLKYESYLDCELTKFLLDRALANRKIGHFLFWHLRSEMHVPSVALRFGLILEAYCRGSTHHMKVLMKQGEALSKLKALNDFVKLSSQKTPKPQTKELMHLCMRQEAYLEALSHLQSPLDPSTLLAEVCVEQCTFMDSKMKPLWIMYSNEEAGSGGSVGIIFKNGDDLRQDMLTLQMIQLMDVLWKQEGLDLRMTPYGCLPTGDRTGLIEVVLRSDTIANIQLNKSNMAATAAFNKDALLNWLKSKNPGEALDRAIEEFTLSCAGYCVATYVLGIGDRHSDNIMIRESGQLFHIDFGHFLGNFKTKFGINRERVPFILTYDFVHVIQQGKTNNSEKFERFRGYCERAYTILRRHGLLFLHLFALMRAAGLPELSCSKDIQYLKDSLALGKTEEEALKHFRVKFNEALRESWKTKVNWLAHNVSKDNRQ
Sequence of PI3K δ (P27986 whole entry partner): as the sequence (P27986 whole entry partner) above

CC1CN(C2CN(c3cnc4ccc(-c5ccc6oc(N)nc6c5)nc4n3)C2)CCO1 (stereo not drawn) [Compound 18] showed an IC50 [1] of over 10 µM, an IC50 [2] of under 1 µM and an IC50 [3, 6] of over 10 µM.
Nc1nc2cc(-c3ccc4ncc(N5CC6CCC(C5)O6)cc4n3)ccc2o1 [Compound 59] gave an IC50 [1] of over 10 µM, an IC50 [2] of under 0.1 µM and an IC50 [3, 6] of over 10 µM. It also gave an IC50 [4] of under 0.1 µM and an IC50 [5] of under 1 µM.
Molecule CN1CC2CN(c3cnc4ccc(-c5ccc6oc(N)nc6c5)nc4c3)CC2C1 (stereo not drawn) [Compound 79] has an IC50 [1] of under 1 µM, an IC50 [2] of under 0.1 µM and an IC50 [3, 6] of under 1 µM. The IC50 [4] was under 1 µM and the IC50 [5] was under 10 µM.
Nc1nc2cc(-c3ccc4ncc(N5CC(N6C7CCC6COC7)C5)nc4n3)ccc2o1 [Compound 51] was tested, and the IC50 [1] was over 10 µM, the IC50 [3, 6] was over 10 µM and the IC50 [4] was over 10 µM.
Work on Nc1nc2cc(-c3ccc4ncc(N5CC(N6C7CCC6COC7)C5)cc4n3)ccc2o1 [Compound 67] yielded an IC50 [2] of under 0.1 µM, an IC50 [3, 6] of over 10 µM and an IC50 [4] of under 1 µM. The IC50 [5] was under 10 µM.
CCN1CCN(C2CN(c3cnc4ccc(-c5ccc6nc(N)[nH]c6c5)nc4c3)C2)CC1 [Compound 87] showed an IC50 [1] of over 10 µM, an IC50 [2] of under 0.1 µM and an IC50 [3, 6] of over 10 µM. For the same molecule, the IC50 [4] was over 10 µM.
In the case of Nc1nc2cc(-c3ccc4ncc(N5CC6CCC(C5)O6)nc4n3)ccc2o1 [Compound 28], the IC50 [1] is reported as over 10 µM, the IC50 [2] is reported as under 0.1 µM and the IC50 [3, 6] is reported as over 10 µM. It also gave an IC50 [4] of under 1 µM and an IC50 [5] of under 1 µM.
With Nc1nc2cc(-c3ccc4ncc(N5C6CCC5COC6)nc4n3)ccc2o1 [Compound 19] the IC50 [1] was over 10 µM, the IC50 [2] was under 0.1 µM and the IC50 [3, 6] was over 10 µM. The IC50 [4] was under 0.1 µM and the IC50 [5] was under 1 µM.
Work on CN1CCN(C2CN(c3cnc4ccc(-c5ccc6oc(N)nc6c5)nc4c3)C2)CC1(C)C [Compound 83] yielded an IC50 [1] of under 0.1 µM, an IC50 [2] of under 0.1 µM and an IC50 [3, 6] of under 1 µM. It also gave an IC50 [4] of under 1 µM and an IC50 [5] of under 0.1 µM.
C[C@H]1CN(C2CN(c3cnc4ccc(-c5ccc6nc(N)[nH]c6c5)nc4c3)C2)CCN1C [Compound 89] was tested, and the IC50 [1] was over 10 µM, the IC50 [2] was under 0.1 µM and the IC50 [3, 6] was over 10 µM. The IC50 [4] was over 10 µM.
CC(C)N1CCN(C2CN(c3cnc4ccc(-c5ccc6nc(N)[nH]c6c5)nc4c3)C2)CC1 [Compound 85] showed an IC50 [1] of over 10 µM, an IC50 [2] of under 0.1 µM and an IC50 [3, 6] of over 10 µM. It also gave an IC50 [4] of over 10 µM.
C[C@@H]1CN(C2CN(c3cnc4ccc(-c5ccc6nc(N)[nH]c6c5)nc4c3)C2)CCN1C [Compound 86] showed an IC50 [1] of over 10 µM, an IC50 [2] of under 0.1 µM and an IC50 [3, 6] of over 10 µM. It also gave an IC50 [4] of over 10 µM.
Molecule Nc1nc2cc(-c3ccc4ncc(N5CC(N6CC7CCC(C6)O7)C5)nc4n3)ccc2o1 [Compound 20] has an IC50 [1] of over 10 µM, an IC50 [2] of under 1 µM and an IC50 [3, 6] of over 10 µM.
Nc1nc2cc(-c3cnc4ccc(N5C6CCC5COC6)nc4c3)ccc2o1 [Compound 81] was tested, and the IC50 [1] was over 10 µM and the IC50 [3] was over 10 µM.
For CN1CCN(C2CN(c3ccc4ncc(-c5ccc6oc(N)nc6c5)cc4n3)C2)CC1 [Compound 84], the IC50 [1] was over 10 µM, the IC50 [3, 6] was over 10 µM and the IC50 [4] was over 10 µM.
Nc1nc2cc(-c3ccc4ncc(N5C6CCC5COC6)cc4n3)ccc2o1 [Compound 23] gave an IC50 [1] of over 10 µM, an IC50 [2] of under 0.1 µM and an IC50 [4] of under 0.1 µM.
CN1CCN(C2CN(c3cnc4ccc(-c5ccc6nc(N)[nH]c6c5)nc4c3)C2)CC1 [Compound 88] showed an IC50 [1] of over 10 µM, an IC50 [2] of under 0.1 µM and an IC50 [3, 6] of over 10 µM. It also gave an IC50 [4] of over 10 µM.
